These results are taken from patent publication US10590145B2, “Tetrahydrothiopyranopyrimidine derivatives as anti-HIV agent” (SHANDONG UNIVERSITY, priority 2016, dated 2020).

Common to all, as to type: cell-based
For test [1], the system named is wide-type HIV-1 (strain IIIB). The test can be described thus: Anti-HIV-1 activity in MT-4 cells (MTT method), wild-type. Here is the method: (§1) Selected compounds were screened for inhibitory activity against HIV-1 using MTT method as describe previously by Christophe. Pannecouque et al. Nat. Protoc. 3 (2008) 427-434, and Rudi Pauwels et al. J. Virol. Methods 20 (1988) 309-321. Briefly, MT-4 cells infected with HIV-1 can only survive for 5 to 7 days without any treatment, but when HIV-1 inhibitors were added, they can protect MT-4 cell from cytopathic. Serial solution of compounds was added to MT-4 cells after infected with HIV-1, MTT method was used to detect the survival rate after culture for 5 to 7 days. EC50 value was defined as compound concentration required to achieve 50% protection of MT-4 cells against HIV-1-induced cytopathic effect. In vitro anti-HIV-1 assay was supported by Rega Institute for Medical Research.
(§2) • (1) MT-4 cells infected with HIV-1 viral strains (IIIB, L100I, K103N, Y181C, Y188L, E138K, F227L/V106A, Y181C/K103N) were provided by Rega Institute for Medical Research, Katholieke Universiteit Leuven, Belgium. • (2) MTT and formazan: sigma Chemical Co. • (3) Preparation of compounds: Stock solutions (10×final concentration) of test compounds is diluted with double distilled water for 5 folds and 5 concentrations of one compound are prepared. • (4) Reference drugs: Nevirapine (NVP), Efavirenz (EFV), Etravirine (ETV), Rilpivirine (RPV) and Azidothymidine (AZT). • (5) Method (MTT method): Serial five-fold dilutions of test compounds were added to cultured MT-4 cells infected with HIV-1, after 5 to 7 days, MTT was added and cultured for a few hours. Medium was removed and lysate was added followed by formazan, OD value was determined in 690 nm and 540 nm by microplate reader, and EC50 value was calculated. 2. Method
(§3) The MTT method was described briefly as follows: 96-well plastic microtiter trays were filled with 100 μL of complete medium. Subsequently, serial of tested compounds was added (25 μL) to two series of triplicate wells so as to allow simultaneous evaluation of their effects on HIV- and mock infected cells. 50 μL of 1×10^4 cells/mL MT-4 cells were added. After cultured for 5 days at 37° C. in humidified atmosphere in the presence of 5% CO2, MTT was added and cultured for another 2 h, then medium was removed and 100 μL isopropanol solution was added to lyse the cells. Formazan crystals were added and vibrated platform shaker for 10 min to solubilize the formazan crystals. Absorbances at 690 nm and 540 nm were read by using spectrophotometrically. EC50 was defined as the concentration achieving 50% protection from the cytopathic effect of the virus in infected cells.
(§4) Selected compounds prepared as described above were assayed in MT-4 cells infected with wide-type IIIB, L100I, K103N, Y181C, Y188L, E138K or double mutant RES056 (Y181C/K103N) and F227L/V106A HIV-1 strains. Nevirapine, Efavirenz, Etravirine, Rilpivirine and Azidothymidine were selected as reference drugs. The results were listed below as EC50 value (nM)
In general terms: Formazan colour is commonly taken as a measure of viable cells.

The subject of test [2] is HIV-1 L100I mutant strain. Nature of the test: Anti-HIV-1 activity in MT-4 cells (MTT method), L100I. The settings on record: for EC50: Human immunodeficiency virus 1, MT4, read-out: EC50 (nM) L100I. The procedure:
as §1, §2, §3, §4

The subject of test [3] is HIV-1 K103N mutant strain. Nature of the test: Anti-HIV-1 activity in MT-4 cells (MTT method), K103N. The note with it: for EC50: Human immunodeficiency virus 1, MT4, read-out: EC50 (nM) K103N. The procedure: as §1, §2, §3, §4
Test [4] deals with HIV-1 Y181C mutant strain. The test can be described thus: Anti-HIV-1 activity in MT-4 cells (MTT method), Y181C. The settings on record: for EC50: Human immunodeficiency virus 1, MT4, read-out: EC50 (nM) Y181C. The procedure:
as §1, §2, §3, §4

The test system of test [5] is HIV-1 Y188L mutant strain. The test can be described thus: Anti-HIV-1 activity in MT-4 cells (MTT method), Y188L. The settings on record: for EC50: Human immunodeficiency virus 1, MT4, read-out: EC50 (nM) Y188L. Here is the method:
as §1, §2, §3, §4

Test [6] has as its system HIV-1 E138K mutant strain. The test can be described thus: Anti-HIV-1 activity in MT-4 cells (MTT method), E138K. The note with it: Human immunodeficiency virus 1, MT4, read-out: EC50 (nM) E138K. The procedure: as §1, §2, §3, §4
Test [7] relates to HIV-1 F227L/V106A double mutant strain. The test can be described thus: Anti-HIV-1 activity in MT-4 cells (MTT method), F227L/V106A. The settings on record: for EC50: Human immunodeficiency virus 1, MT4, read-out: EC50 (nM) F227L/V106A. The procedure:
as §1, §2, §3, §4

The subject of test [8] is HIV-1 double mutant RES056 (Y181C/K103N). Nature of the test: Anti-HIV-1 activity in MT-4 cells (MTT method), RES056. The note with it: for EC50: Human immunodeficiency virus 1, MT4, read-out: EC50 (nM) Y181C/K103N. Here is the method:
as §1, §2, §3, §4

Setting [9] is: Human immunodeficiency virus 1, IIIB, MT4, read-out: EC50 (nM) wt.

Like-named read-outs stand apart in the source and are kept apart here.

Take `O=C1Nc2ccc(Cl)cc2[C@@](C#CC2CC2)(C(F)(F)F)O1` [EFV, Efavirenz, reference compound]: the EC50 is below 10 nM in test [1] (Human immunodeficiency virus 1, MT4, MT-4 cells, 50% protection against HIV-1-induced cytopathicity, wt (IIIB), read-out: EC50 (nM) wt); 10 to 100 nM in test [2]; 10 to 100 nM in test [3]; below 10 nM in test [4]; 10 to 100 nM in test [5]; below 10 nM in test [6]. Besides, the EC50 in test [7] is 10 to 100 nM; in test [8] it was above 100 nM.

As for `Cc1cc(C#N)cc(C)c1Oc1nc(Nc2ccc(C#N)cc2)nc(N)c1Br` [ETV, Etravirine, reference compound], the EC50 in test [1] (setting [9]) is below 10 nM; in test [2], below 10 nM; in test [3], below 10 nM; in test [4] it was 10 to 100 nM; in test [5], 10 to 100 nM; in test [6], 10 to 100 nM. Moreover, the EC50 in test [7] and in test [8] was 10 to 100 nM throughout.

As to `Cc1cc(/C=C/C#N)cc(C)c1Oc1nc(Nc2ccc(C#N)cc2)nc2c1SCCC2` [IA-1-2, (E)-4-((4-(4-(2-cyanovinyl)-2,6-dimethylphenoxy)-7,8-dihydro-6H-thiopyrano[3,2-d]pyrimidin-2-yl)amino)benzonitrile], the EC50 is below 10 nM in test [1] (setting [9]); below 10 nM in test [2]; below 10 nM in test [3]; 10 to 100 nM in test [4]; 10 to 100 nM in test [5]; 10 to 100 nM in test [6]. Also, the EC50 in test [7] and in test [8] was 10 to 100 nM throughout.

Regarding `Cc1cc(C#N)cc(C)c1Oc1nc(NC2CCN(Cc3ccc(S(N)(=O)=O)cc3)CC2)nc2c1SCCC2` [IIA-1-1, 4-((4-((4-(4-cyano-2,6-dimethylphenoxy)-7,8-dihydro-6H-thiopyrano[3,2-d]pyrimidin-2-yl)amino)piperidin-1-yl)methyl)benzenesulfonamide], the EC50 in test [1] (setting [9]) was below 10 nM; in test [2] it was 10 to 100 nM; in test [3] it was below 10 nM; in test [4], 10 to 100 nM; in test [5], below 10 nM; in test [6], below 10 nM. Besides, the EC50 in test [7] and in test [8] was 10 to 100 nM throughout.

`Cc1cc(C)c(Oc2nc(NC3CCN(Cc4ccc(S(N)(=O)=O)cc4)CC3)nc3c2SCCC3)c(C)c1` [IIA-1-2, 4-((4-((4-(mesityloxy)-7,8-dihydro-6H-thiopyrano[3,2-d]pyrimidin-2-yl)amino)piperidin-1-yl)methyl)benzenesulfonamide]: the EC50 is below 10 nM in test [1] (setting [9]); 10 to 100 nM in test [2]; below 10 nM in test [3]; 10 to 100 nM in test [4]; 10 to 100 nM in test [5]; 10 to 100 nM in test [6]. In addition, the figures for the EC50 in test [7] and in test [8] were 10 to 100 nM and above 100 nM, respectively.

`Cc1cc(/C=C/C#N)cc(C)c1Oc1nc(NC2CCN(Cc3ccc(S(N)(=O)=O)cc3)CC2)nc2c1SCCC2` [IIA-1-3, (E)-4-((4-((4-(4-(2-cyanovinyl)-2,6-dimethylphenoxy)-7,8-dihydro-6H-thiopyrano[3,2-d]pyrimidin-2-yl)amino)piperidin-1-yl)methyl)benzenesulfonamide]: the EC50 in test [1] (setting [9]) was below 10 nM; in test [2] it was below 10 nM; in test [3], below 10 nM; in test [4] it was below 10 nM; in test [5], 10 to 100 nM; in test [6], 10 to 100 nM. Also, the EC50 in test [7] was below 10 nM; in test [8], 10 to 100 nM. In addition, the “fold more potent than ETV against L100I” value in test [2] (L100I, relative to ETV) is 2 fold. In addition, in test [3] (K103N, relative to ETV), the “Activity against K103N compared with ETV” value is recorded as “comparable”. For the same compound, in test [4] (Y181C, relative to ETV), the “fold more potent than ETV against Y181C” value is 2 fold. Besides, the “Activity against Y188L compared with ETV” value in test [5] (Y188L, relative to ETV) was “comparable”. Further, the “fold more potent than ETV against F227L/V106A” value in test [7] (F227L/V106A, relative to ETV) turned out to be 2 fold. Further, the “fold more potent than ETV against Y181C/K103N” value in test [8] (Y181C/K103N, relative to ETV) came out at 2 fold.

As for `Cc1cc(C#N)cc(C)c1Oc1nc(NC2CCN(Cc3cccc(S(N)(=O)=O)c3)CC2)nc2c1SCCC2` [IIA-1-4, 3-((4-((4-(4-cyano-2,6-dimethylphenoxy)-7,8-dihydro-6H-thiopyrano[3,2-d]pyrimidin-2-yl)amino)piperidin-1-yl)methyl)benzenesulfonamide], the EC50 in test [1] (setting [9]) is below 10 nM; in test [2], above 100 nM; in test [3], 10 to 100 nM; in test [4], 10 to 100 nM; in test [5], 10 to 100 nM; in test [6], 10 to 100 nM. Also, the figures for the EC50 in test [7] and in test [8] were 10 to 100 nM and above 100 nM, respectively.

For `Cc1cc(C#N)cc(C)c1Oc1nc(NC2CCN(Cc3ccc(C#N)cc3)CC2)nc2c1SCCC2` [IIA-1-5, 4-((2-((1-(4-cyanobenzyl)piperidin-4-yl)amino)-7,8-dihydro-6H-thiopyrano[3,2-d]pyrimidin-4-yl)oxy)-3,5-dimethylbenzonitrile], the EC50 in test [1] (setting [9]) is below 10 nM; in test [2] it was 10 to 100 nM; in test [3] it was 10 to 100 nM; in test [4], 10 to 100 nM; in test [5] it was 10 to 100 nM; in test [6], 10 to 100 nM. Besides, the EC50 in test [7] and in test [8] was above 100 nM each time.

With `Cc1cc(C#N)cc(C)c1Oc1nc(NC2CCN(Cc3cccc(C#N)c3)CC2)nc2c1SCCC2` [IIA-1-6, 4-((2-((1-(3-cyanobenzyl)piperidin-4-yl)amino)-7,8-dihydro-6H-thiopyrano[3,2-d]pyrimidin-4-yl)oxy)-3,5-dimethylbenzonitrile], the EC50 in test [1] (setting [9]) was below 10 nM; in test [2] it was above 100 nM; in test [3] it was 10 to 100 nM; in test [4], 10 to 100 nM; in test [5] it was 10 to 100 nM; in test [6], 10 to 100 nM. The EC50 in test [7] and in test [8] was above 100 nM in each case.

Regarding `Cc1cc(C#N)cc(C)c1Oc1nc(NC2CCN(Cc3ccccc3C#N)CC2)nc2c1SCCC2` [IIA-1-7, 4-((2-((1-(2-cyanobenzyl)piperidin-4-yl)amino)-7,8-dihydro-6H-thiopyrano[3,2-d]pyrimidin-4-yl)oxy)-3,5-dimethylbenzonitrile], the EC50 is below 10 nM in test [1] (setting [9]); above 100 nM in test [2]; 10 to 100 nM in test [3]; 10 to 100 nM in test [4]; above 100 nM in test [5]; 10 to 100 nM in test [6]. Moreover, the EC50 in test [7] and in test [8] was above 100 nM each time.

On to `Cc1cc(C#N)cc(C)c1Oc1nc(NC2CCN(Cc3ccc(C(N)=O)cc3)CC2)nc2c1SCCC2` [IIA-1-8, 4-((4-((4-(4-cyano-2,6-dimethylphenoxy)-7,8-dihydro-6H-thiopyrano[3,2-d]pyrimidin-2-yl)amino)piperidin-1-yl)methyl)benzamide], for which the EC50 in test [1] (setting [9]) was below 10 nM; in test [2] it was 10 to 100 nM; in test [3], below 10 nM; in test [4], 10 to 100 nM; in test [5], 10 to 100 nM; in test [6], 10 to 100 nM. Further, the figures for the EC50 in test [7] and in test [8] were above 100 nM and 10 to 100 nM, respectively.
